According to patent US20080070971A1, “Medical Use of Bilirubin and its Structural Analogues” (priority 2006, published 2008):

Assays:
[1] = system: Pancreas phospholipase A2 (PLA2); test: Phospholipase A2 FlashPlate inhibition assay; assay type: biochemical; conditions: bilirubin concentration of about 10 mg/L; pH=7.2 (FIG. 1)
Method: Pancreas phospholipase A2 (PLA2) (SigmaAldrich Cat.# P223), acetylcholinesterase (SigmaAldrich cat.# C0663), acetyleholine chloride (Cat.# A6625), and bilirubin (SigmaAldrich #B4126) were purchased from SigmaAldrich. Bilirubin solution was prepared freshly by dissolving it in dimethyl sulfoxide (DMSO) and further dilutions were made in Tris-HCl buffer (pH 7.4). The sPLA2 activity was determined by the FlashPlate assay procedure described by Do and Kasila (American Biotechnology Laboratory, June 2001, P 51-52). Briefly, phospholipid flash plates (PerkinElmer Life Sciences, cat. #SMP108) were coated with 0.2 mL/well of the substrate of 1-steroyl 2-arachidonyl phosphatidylcholine (PerkinElmer Life Sciences, cat. #NE872). The plate was covered and incubated overnight at room temperature. After the incubation, the wells were aspirated prior to use in the PLA2 assay. The substrate assay buffer contained 50 mM tris-HCl (pH=7.3), 0.2 M NaCl, 0.1 mM CaCl2, 0.1 mM EDTA, 0.02% deoxycholate, 10-50 units/mL PLA2, and final volume 200 μL/well. The bound radioactivity was determined by counting the FlashPlate.

[2] = biological target: T1, cholesterol esterase (CHE) (Homo sapiens, UniProt P19835); test: Cholesterol esterase inhibition; assay type: biochemical; conditions: bilirubin concentration of about 10 mg/L; pH=7.2 (FIG. 1)
T1 sequence (P19835 21-753): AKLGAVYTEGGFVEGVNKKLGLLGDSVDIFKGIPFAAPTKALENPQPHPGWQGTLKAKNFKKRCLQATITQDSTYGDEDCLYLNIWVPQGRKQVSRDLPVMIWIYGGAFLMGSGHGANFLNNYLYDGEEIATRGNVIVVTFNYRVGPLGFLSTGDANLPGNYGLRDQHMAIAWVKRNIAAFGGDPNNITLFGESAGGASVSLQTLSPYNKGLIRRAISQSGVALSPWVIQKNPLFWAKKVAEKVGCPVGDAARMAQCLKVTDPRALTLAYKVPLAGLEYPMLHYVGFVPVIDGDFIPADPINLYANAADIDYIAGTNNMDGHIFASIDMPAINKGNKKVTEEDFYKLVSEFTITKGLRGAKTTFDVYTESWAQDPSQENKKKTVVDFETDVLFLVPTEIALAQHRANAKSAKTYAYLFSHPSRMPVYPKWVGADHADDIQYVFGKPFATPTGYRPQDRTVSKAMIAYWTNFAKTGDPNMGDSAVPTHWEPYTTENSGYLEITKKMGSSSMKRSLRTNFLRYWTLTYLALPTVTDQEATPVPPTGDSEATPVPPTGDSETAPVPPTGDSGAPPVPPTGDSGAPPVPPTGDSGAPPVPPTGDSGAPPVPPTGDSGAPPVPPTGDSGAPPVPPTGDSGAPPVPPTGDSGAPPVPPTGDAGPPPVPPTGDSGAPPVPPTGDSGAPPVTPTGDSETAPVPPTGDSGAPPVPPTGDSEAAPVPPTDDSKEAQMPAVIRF

acetylcholinesterase = biological target: T2, acetylcholinesterase (Homo sapiens, UniProt P22303); test: Acetylcholinesterase activity by choline release; assay type: biochemical; conditions: at high bilirubin concentrations (FIG. 2)
T2 construct: purchased SigmaAldrich C0663
Method: Since bilirubin itself gives an absorption peak at 460 nm, which interferes with the cholinesterase assay procedures in many standard assay kits, a modified method was developed. The acetylcholinesterase activity was determined by measuring the quantity of choline release from acetylcholine:
Briefly, after 30 minutes reaction in the above acetylcholine-enzyme solution at pH=7.8, in the absence or presence of bilirubin, the reaction was stopped by heating to about 100° C. in boiling water. The solution was then cooled down to 37° C. Residual bilirubin was neutralized by titrating with H2O2. The amount of choline was then determined by the following choline oxidase assay method provided by SigmaAldrich (Cat.# C5896): […]

cyclooxygenase (COX) = test: Cyclooxygenase (COX) inhibition; assay type: biochemical, human
Method: The activity of COX was determined by the procedure described in Assay Design's Enzyme Immunometric Assay (EIA) kit (Assay Design Inc., TiterZyme EIA cat.#900-094). Briefly, the kit uses a monoclonal antibody to human COX-II immobilized on a microtiter plate to bind the human COX in the standard or sample. After a short incubation the excess standard or sample is washed out and a rabbit polyclonal antibody to human COX labeled with the enzyme. Horseradish peroxidase is added. This labeled antibody binds to the human COX captured on the plate. After a short incubation the excess labeled antibody is washed out and substrate is added. The substrate reacts with the labeled antibody bound to the human COX captured on the plate. After a short incubation, the enzyme reaction is stopped and the color generated is read at 450 nm. The measured optical density is directly proportional to the concentration of human COX.
Purified cyclooxygenases (COX) were obtained from Kayman Chemical Company and used to examine the inhibitory effect of bilirubin with arachidonic acid as the substrate. High purity of bilirubin (SigmaAldrich #B4126), biliverdin (Frontier Scientific Inc., Cat. B655-9) and hemin (SigmaAldrich, #51280) were used as received.

[3] = Minimal erythema dose (MED) on skin exposed to solar radiation; assay type: in vivo, human
From the text: Healthy volunteers were exposed to solar radiation for evaluation of minimal erythema dose (MED)—a direct sign of acute inflammation, without and with pretreatment of bilirubin (dissolved in dimethyl sulfoxide).

[4] = Oral bilirubin supplementation, blood chemistry; assay type: in vivo
Method: 2-6 bilirubin pills (10 mg/capsule)were ingested daily as a dietary supplement over time period from 3-12 months. Blood samples were taken by medical professionals and blood chemistry, including serum bilirubin level, total cholesterol, triglyceride, LDL-cholesterol, and HDL cholesterol were analyzed by independent medical testing laboratories.

[5] = 2-6 pills (10 mg/capsule) daily, 3-12 months
[6] = at higher serum bilirubin level (FIG. 12)

T2 sequence (P22303 32-617 isoform P22303-2 limits assumed): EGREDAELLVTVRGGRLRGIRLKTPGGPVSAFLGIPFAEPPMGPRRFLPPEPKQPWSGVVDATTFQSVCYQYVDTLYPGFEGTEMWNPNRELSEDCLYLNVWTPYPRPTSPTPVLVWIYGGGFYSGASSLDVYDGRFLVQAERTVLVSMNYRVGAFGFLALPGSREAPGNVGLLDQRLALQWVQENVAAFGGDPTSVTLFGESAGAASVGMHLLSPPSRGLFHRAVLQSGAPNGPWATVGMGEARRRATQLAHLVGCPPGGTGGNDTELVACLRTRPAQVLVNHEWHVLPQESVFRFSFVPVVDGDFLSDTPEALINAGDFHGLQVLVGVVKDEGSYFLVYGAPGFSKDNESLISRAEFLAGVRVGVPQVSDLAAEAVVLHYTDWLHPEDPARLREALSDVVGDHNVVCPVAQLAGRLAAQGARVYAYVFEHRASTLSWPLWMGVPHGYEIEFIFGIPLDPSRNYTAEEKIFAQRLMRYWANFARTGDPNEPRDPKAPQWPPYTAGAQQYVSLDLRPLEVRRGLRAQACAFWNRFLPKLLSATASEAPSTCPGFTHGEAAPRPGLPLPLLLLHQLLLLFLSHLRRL

C=CC1=C(C)C(=Cc2[nH]c(Cc3[nH]c(C=C4NC(=O)C(C)=C4C=C)c(C)c3CCC(=O)O)c(CCC(=O)O)c2C)NC1=O [bilirubin, 2,7,13,17-tetramethyl-1,19-dioxo-3,18-divinyl-1,10,19,22,23,24-hexahydro-21H-biline-8,12-dipropanoic acid]
inhibition of the PLA2 activity [1]: about 80% | inhibition at 10 µg/mL [2]: ~50% | acetylcholinesterase activity (acetylcholinesterase): completely eliminated | inhibition of the COX activity (cyclooxygenase (COX); 10 mg/L bilirubin (FIG. 3)): Up to 70% | reducing COX activity (comparison) (cyclooxygenase (COX); concentration of 10 mg/L (FIG. 4)): effective in reducing COX activity | skin inflammation after UV exposure ([3]; bilirubin treated skin areas): no sign of inflammation | minimal erythema dose (MED) ([3]; topical pretreatment with bilirubin in DMSO (FIG. 8)): increased | total cholesterol concentration [4, 5]: varied inversely | total serum bilirubin level [4, 5]: effectively increased | LDL-cholesterol level [4, 6]: lower | triglycerol level [4, 6]: lower | fecal fat content ([4]; bilirubin treatment): substantially increased
